Results published in patent US9149038B2, “4-amino-6-(heterocyclic)picolinates and 6-amino-2-(heterocyclic)pyrimidine-4-carboxylates and their use as herbicides” (Dow AgroSciences LLC, priority 2013, dated 2015).
Read-outs that look alike come from different tables or passages of the source.

Test system: Direct Seeded Rice and weed species
Assay: Postemergence herbicidal activity in direct seeded rice, visual rating after 20-22 days and probit GR20/GR50/GR80/GR90 (Table 14)
Format: in vivo
Details: for pest or weed control at 17.5 g/ha / pest or weed control at 35 g/ha / pest or weed control at 70 g/ha: post-emergence, 504 h, postemergence; for pest or weed control at 17.5 g/ha: 17.5 g ai/ha; for pest or weed control at 35 g/ha: 35 g ai/ha; for pest or weed control at 70 g/ha: 70 g ai/ha
Text: Herbicidal evaluations were made visually on a scale of 0 to 100 where 0 represents no activity and 100 represents complete plant death. Seeds or nutlets of the desired test plant species were planted in a soil matrix prepared by mixing a loam soil (43 percent silt, 19 percent clay, and 38 percent sand, with a pH of about 8.1 and an organic matter content of about 1.5 percent) and river sand in an 80 to 20 ratio. The soil matrix was contained in plastic pots with a surface area of 139.7 cm^2. When required to ensure good germination and healthy plants, a fungicide treatment and/or other chemical or physical treatment was applied. The plants were grown for 10-17 d in a greenhouse with an approximate 14-h photoperiod which was maintained at about 29° C. during the day and 26° C. during the night. Nutrients and water were added on a regular basis and supplemental lighting was provided with overhead metal halide 1000-Watt lamps as necessary. The plants were employed for testing when they reached the second or third true leaf stage. A weighed amount, determined by the highest rate to be tested, of each test compound was placed in 25 mL glass vials and dissolved in a volume of 97:3 v/v acetone-DMSO to obtain 12× stock solutions. […] The concentrated stock solutions were added to the spray solutions so that the final acetone and DMSO concentrations were 16.2% and 0.5%, respectively. Spray solutions were diluted to the appropriate final concentrations with the addition of 10 mL of an aqueous mixture of 1.5% (v/v) Agri-dex crop oil concentrate. The final spray solutions contained 1.25% (v/v) Agri-dex crop oil concentrate. Compound requirements are based upon a 12 mL application volume at a rate of 187 L/ha. Formulated compounds were applied to the plant material with an overhead Mandel track sprayer equipped with […] nozzles calibrated to deliver 187 L/ha over an application area of 0.503 square meters (m^2) at a spray height of 18 inches (43 cm) above average plant canopy height. Control plants were sprayed in the same manner with the solvent blank. The treated plants and control plants were placed in a greenhouse as described above and watered by sub-irrigation to prevent wash-off of the test compounds. After 20-22 days, the condition of the test plants, compared with that of the untreated plants, was determined visually and scored on a scale of 0 to 100 percent where 0 corresponds to no injury and 100 corresponds to complete kill and are presented as indicated in Table 4. By applying the well-accepted probit analysis as described by J. Berkson in Journal of the American Statistical Society, 48, 565 (1953) and by D. Finney in “Probit Analysis” Cambridge University Press (1952), herbicidal injury of a specific compound at various rates can be used to calculate GR20, GR50, GR80 and GR90 values, which are defined as growth reduction factors that correspond to the effective dose of herbicide required to provide plant growth reduction (GR) of 20 percent, 50 percent, 80 percent and 90 percent, respectively. Probit analysis was applied to data collected from multiple dose rates of individual compounds utilizing the procedures explained in the following examples. The data for some of the dose rates and analysis of all of the dose rates are captured in the following tables.

[1] = BRAPP (broadleaf signalgrass, Brachiaria platyphylla), read-out: Visual Growth Reduction (%) 21 Days After Application BRAPP
[2] = CYPDI (small-flower flatsedge, Cyperus difformis), read-out: Visual Growth Reduction (%) 21 Days After Application CYPDI
[3] = CYPES (yellow nutsedge, Cyperus esculentus), read-out: Visual Growth Reduction (%) 21 Days After Application CYPES
[4] = CYPIR (rice flatsedge, Cyperus iria), read-out: Visual Growth Reduction (%) 21 Days After Application CYPIR
[5] = DIGSA (large crabgrass, Digitaria sanguinalis), read-out: Visual Growth Reduction (%) 21 Days After Application DIGSA
[6] = ECHCG (barnyardgrass, Echinochloa crus-galli), read-out: Visual Growth Reduction (%) 21 Days After Application ECHCG
[7] = ECHCO (junglerice, Echinochloa colonum), read-out: Visual Growth Reduction (%) 21 Days After Application ECHCO
[8] = LEFCH (Chinese sprangletop, Leptochloa chinensis), read-out: Visual Growth Reduction (%) 21 Days After Application LEFCH
[9] = ORYSJ (Oryza sativa, rice crop), read-out: Visual Growth Reduction (%) 21 Days After Application ORYSJ
[10] = ORYSK (Oryza sativa, rice crop), read-out: Visual Growth Reduction (%) 21 Days After Application ORYSK
[11] = SCPJU (Japanese bulrush, Schoenoplectus juncoides Roxb.), read-out: Visual Growth Reduction (%) 21 Days After Application SCPJU
[12] = SEBEX (hemp sesbania, Sesbania exaltata), read-out: Visual Growth Reduction (%) 21 Days After Application SEBEX

In the case of Nc1c(F)c(-c2ccc3c(c2F)OC(F)(F)O3)nc(C(=O)O)c1Cl [Compound 11], the “GR50 BRAPP” value (BRAPP (Brachiaria platyphylla), probit analysis, dose for 50 percent growth reduction) is reported as 7 g ai/ha, the “GR80 BRAPP” value (BRAPP (Brachiaria platyphylla), probit analysis, dose for 80 percent growth reduction) is reported as 16 g ai/ha and the “GR90 BRAPP” value (BRAPP (Brachiaria platyphylla), probit analysis, dose for 90 percent growth reduction) is reported as 25 g ai/ha. The “GR50 CYPDI” value (CYPDI (Cyperus difformis), probit analysis, dose for 50 percent growth reduction) was 3 g ai/ha, the “GR80 CYPDI” value (CYPDI (Cyperus difformis), probit analysis, dose for 80 percent growth reduction) was 7 g ai/ha and the “GR90 CYPDI” value (CYPDI (Cyperus difformis), probit analysis, dose for 90 percent growth reduction) was 10 g ai/ha. For the same compound, the “GR50 CYPES” value (CYPES (Cyperus esculentus), probit analysis, dose for 50 percent growth reduction) was <18 g ai/ha, the “GR80 CYPES” value (CYPES (Cyperus esculentus), probit analysis, dose for 80 percent growth reduction) was <18 g ai/ha and the “GR90 CYPES” value (CYPES (Cyperus esculentus), probit analysis, dose for 90 percent growth reduction) was <18 g ai/ha. For the same compound, the “GR50 CYPIR” value (CYPIR (Cyperus iria), probit analysis, dose for 50 percent growth reduction) was 5 g ai/ha, the “GR80 CYPIR” value (CYPIR (Cyperus iria), probit analysis, dose for 80 percent growth reduction) was 7 g ai/ha and the “GR90 CYPIR” value (CYPIR (Cyperus iria), probit analysis, dose for 90 percent growth reduction) was 7 g ai/ha. The “GR50 DIGSA” value (DIGSA (Digitaria sanguinalis), probit analysis, dose for 50 percent growth reduction) was 1 g ai/ha, the “GR80 DIGSA” value (DIGSA (Digitaria sanguinalis), probit analysis, dose for 80 percent growth reduction) was 4 g ai/ha and the “GR90 DIGSA” value (DIGSA (Digitaria sanguinalis), probit analysis, dose for 90 percent growth reduction) was 9 g ai/ha. For the same compound, the “GR50 ECHCG” value (ECHCG (Echinochloa crus-galli), probit analysis, dose for 50 percent growth reduction) was 7 g ai/ha, the “GR80 ECHCG” value (ECHCG (Echinochloa crus-galli), probit analysis, dose for 80 percent growth reduction) was 15 g ai/ha and the “GR90 ECHCG” value (ECHCG (Echinochloa crus-galli), probit analysis, dose for 90 percent growth reduction) was 23 g ai/ha. For the same compound, the “GR50 ECHCO” value (ECHCO (Echinochloa colonum), probit analysis, dose for 50 percent growth reduction) was 4 g ai/ha, the “GR80 ECHCO” value (ECHCO (Echinochloa colonum), probit analysis, dose for 80 percent growth reduction) was 9 g ai/ha and the “GR90 ECHCO” value (ECHCO (Echinochloa colonum), probit analysis, dose for 90 percent growth reduction) was 14 g ai/ha. For the same compound, the “GR50 LEFCH” value (LEFCH (Leptochloa chinensis), probit analysis, dose for 50 percent growth reduction) was 23 g ai/ha, the “GR80 LEFCH” value (LEFCH (Leptochloa chinensis), probit analysis, dose for 80 percent growth reduction) was 34 g ai/ha and the “GR90 LEFCH” value (LEFCH (Leptochloa chinensis), probit analysis, dose for 90 percent growth reduction) was 41 g ai/ha. For the same compound, the “GR20 ORYSJ” value (ORYSJ (Oryza sativa, rice crop), probit analysis, dose for 20 percent growth reduction) was 8 g ai/ha, the “GR20 ORYSK” value (ORYSK (Oryza sativa, rice crop), probit analysis, dose for 20 percent growth reduction) was 7 g ai/ha and the “GR50 SCPJU” value (SCPJU (Schoenoplectus juncoides Roxb.), probit analysis, dose for 50 percent growth reduction) was 0.04 g ai/ha. The “GR80 SCPJU” value (SCPJU (Schoenoplectus juncoides Roxb.), probit analysis, dose for 80 percent growth reduction) was 1 g ai/ha, the “GR90 SCPJU” value (SCPJU (Schoenoplectus juncoides Roxb.), probit analysis, dose for 90 percent growth reduction) was 2 g ai/ha and the “GR50 SEBEX” value (SEBEX (Sesbania exaltata), probit analysis, dose for 50 percent growth reduction) was 3 g ai/ha. The “GR80 SEBEX” value (SEBEX (Sesbania exaltata), probit analysis, dose for 80 percent growth reduction) was 7 g ai/ha, the “GR90 SEBEX” value (SEBEX (Sesbania exaltata), probit analysis, dose for 90 percent growth reduction) was 10 g ai/ha and the pest or weed control at 17.5 g/ha [1] was 85 to 94%. For the same compound, the pest or weed control at 35 g/ha [1] was 95 to 100%, the pest or weed control at 70 g/ha [1] was 95 to 100% and the pest or weed control at 17.5 g/ha [2] was 95 to 100%. The pest or weed control at 35 g/ha [2] was 95 to 100%, the pest or weed control at 70 g/ha [2] was 95 to 100% and the pest or weed control at 17.5 g/ha [3] was 85 to 94%. The pest or weed control at 35 g/ha [3] was 95 to 100%, the pest or weed control at 70 g/ha [3] was 95 to 100% and the pest or weed control at 17.5 g/ha [4] was 95 to 100%. For the same compound, the pest or weed control at 35 g/ha [4] was 95 to 100%, the pest or weed control at 70 g/ha [4] was 95 to 100% and the pest or weed control at 17.5 g/ha [5] was 95 to 100%. The pest or weed control at 35 g/ha [5] was 95 to 100%, the pest or weed control at 70 g/ha [5] was 95 to 100% and the pest or weed control at 17.5 g/ha [6] was 95 to 100%. It also gave a pest or weed control at 35 g/ha [6] of 85 to 94%, a pest or weed control at 70 g/ha [6] of 95 to 100% and a pest or weed control at 17.5 g/ha [7] of 95 to 100%. It also gave a pest or weed control at 35 g/ha [7] of 95 to 100%, a pest or weed control at 70 g/ha [7] of 95 to 100% and a pest or weed control at 17.5 g/ha [8] of 0 to 29%. The pest or weed control at 35 g/ha [8] was 95 to 100%, the pest or weed control at 70 g/ha [8] was 95 to 100% and the pest or weed control at 17.5 g/ha [9] was 30 to 44%. It also gave a pest or weed control at 35 g/ha [9] of 75 to 84%, a pest or weed control at 70 g/ha [9] of 85 to 94% and a pest or weed control at 17.5 g/ha [10] of 45 to 59%. For the same compound, the pest or weed control at 35 g/ha [10] was 60 to 74%, the pest or weed control at 70 g/ha [10] was 75 to 84% and the pest or weed control at 17.5 g/ha [11] was 95 to 100%. It also gave a pest or weed control at 35 g/ha [11] of 95 to 100%, a pest or weed control at 70 g/ha [11] of 95 to 100% and a pest or weed control at 17.5 g/ha [12] of 95 to 100%. For the same compound, the pest or weed control at 35 g/ha [12] was 95 to 100% and the pest or weed control at 70 g/ha [12] was 95 to 100%.
